What was measured:
[1] = target: T1, Nonstructural protein 5A (Hepatitis C virus) (UniProt Q5L478); experiment: Inhibition of HCV NS5A assessed as antiviral activity against HCV by viral replicon assay; conditions: Hepacivirus hominis
T1 sequence (whole entry): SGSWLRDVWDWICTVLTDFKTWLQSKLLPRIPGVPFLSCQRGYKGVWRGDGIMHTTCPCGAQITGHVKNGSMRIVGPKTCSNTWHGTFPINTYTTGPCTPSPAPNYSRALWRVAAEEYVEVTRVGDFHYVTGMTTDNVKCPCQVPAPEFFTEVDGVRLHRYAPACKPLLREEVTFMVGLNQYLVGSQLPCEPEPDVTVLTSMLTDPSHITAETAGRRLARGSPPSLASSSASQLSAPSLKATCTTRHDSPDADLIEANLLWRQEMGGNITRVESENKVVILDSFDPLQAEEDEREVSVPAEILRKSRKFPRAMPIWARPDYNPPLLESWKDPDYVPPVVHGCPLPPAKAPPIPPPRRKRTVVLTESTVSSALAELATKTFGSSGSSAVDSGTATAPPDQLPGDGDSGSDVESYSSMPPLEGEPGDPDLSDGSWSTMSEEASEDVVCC

PBMC = experiment: Cytotoxicity against human PBMC cells; format: cell-based; conditions: pbmc
Vero = experiment: Cytotoxicity against african green monkey Vero cells; format: cell-based; conditions: chlorocebus sabaeus
CCRF-CEM = experiment: Cytotoxicity against human CEM cells; format: cell-based
[2] = Cytotoxicity against human HuH7 cells; format: cell-based, Huh-7
Liver microsomes [3] = experiment: Intrinsic clearance in human liver microsomes assessed per mg protein at 1 uM measured 5 to 60 mins post dose by LC-MS/MS nethod; format: ADME, Microsome
CYP1A2 = target: T2, CYP1A2 (Homo sapiens, UniProt P05177); experiment: (§1) Inhibition of CYP1A2; format: ADME
T2 sequence (P05177 whole entry): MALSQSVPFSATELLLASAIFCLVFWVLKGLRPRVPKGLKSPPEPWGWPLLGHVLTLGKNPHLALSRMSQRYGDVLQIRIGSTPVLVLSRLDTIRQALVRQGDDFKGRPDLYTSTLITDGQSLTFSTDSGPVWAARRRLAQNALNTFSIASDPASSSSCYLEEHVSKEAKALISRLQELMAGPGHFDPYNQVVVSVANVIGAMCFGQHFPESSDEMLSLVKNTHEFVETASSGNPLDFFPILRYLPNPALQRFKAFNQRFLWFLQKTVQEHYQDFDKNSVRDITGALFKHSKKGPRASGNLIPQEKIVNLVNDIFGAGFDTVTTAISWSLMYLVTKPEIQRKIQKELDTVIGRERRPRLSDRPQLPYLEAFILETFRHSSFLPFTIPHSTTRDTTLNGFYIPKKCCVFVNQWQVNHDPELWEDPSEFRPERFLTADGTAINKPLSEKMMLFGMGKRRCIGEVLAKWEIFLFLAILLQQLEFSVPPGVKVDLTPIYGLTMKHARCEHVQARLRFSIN

Cytochrome P450 1A2 = target: T3, Cytochrome P450 1A2 (Homo sapiens, UniProt P05177); experiment: as §1; format: ADME
T3 sequence (P05177 whole entry): T2 sequence (P05177 whole entry)

CYP2D6 = CYP2D6 (Homo sapiens, UniProt P10635); experiment: (§2) Inhibition of CYP2D6; format: ADME
CYP2D6, sequence (P10635 whole entry): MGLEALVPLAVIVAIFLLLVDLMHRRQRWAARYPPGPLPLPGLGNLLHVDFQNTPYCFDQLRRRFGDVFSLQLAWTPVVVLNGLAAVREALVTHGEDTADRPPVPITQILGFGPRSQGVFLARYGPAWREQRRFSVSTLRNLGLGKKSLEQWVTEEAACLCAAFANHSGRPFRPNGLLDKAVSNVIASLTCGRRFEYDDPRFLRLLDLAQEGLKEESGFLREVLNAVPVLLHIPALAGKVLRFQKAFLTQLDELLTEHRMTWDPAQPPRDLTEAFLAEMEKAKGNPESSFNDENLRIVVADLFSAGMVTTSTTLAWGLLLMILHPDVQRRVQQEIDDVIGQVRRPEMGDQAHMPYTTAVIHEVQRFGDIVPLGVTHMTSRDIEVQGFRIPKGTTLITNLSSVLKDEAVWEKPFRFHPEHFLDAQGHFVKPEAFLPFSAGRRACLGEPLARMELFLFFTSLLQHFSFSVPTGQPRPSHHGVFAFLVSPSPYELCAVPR

Cytochrome P450 2D6 = Cytochrome P450 2D6 (Homo sapiens, UniProt P10635); experiment: as §2; format: ADME
Cytochrome P450 2D6, sequence (P10635 whole entry): as above

CYP3A4 = CYP3A4 (Homo sapiens, UniProt P08684); experiment: (§3) Inhibition of CYP3A4; format: ADME
CYP3A4, sequence (P08684 whole entry): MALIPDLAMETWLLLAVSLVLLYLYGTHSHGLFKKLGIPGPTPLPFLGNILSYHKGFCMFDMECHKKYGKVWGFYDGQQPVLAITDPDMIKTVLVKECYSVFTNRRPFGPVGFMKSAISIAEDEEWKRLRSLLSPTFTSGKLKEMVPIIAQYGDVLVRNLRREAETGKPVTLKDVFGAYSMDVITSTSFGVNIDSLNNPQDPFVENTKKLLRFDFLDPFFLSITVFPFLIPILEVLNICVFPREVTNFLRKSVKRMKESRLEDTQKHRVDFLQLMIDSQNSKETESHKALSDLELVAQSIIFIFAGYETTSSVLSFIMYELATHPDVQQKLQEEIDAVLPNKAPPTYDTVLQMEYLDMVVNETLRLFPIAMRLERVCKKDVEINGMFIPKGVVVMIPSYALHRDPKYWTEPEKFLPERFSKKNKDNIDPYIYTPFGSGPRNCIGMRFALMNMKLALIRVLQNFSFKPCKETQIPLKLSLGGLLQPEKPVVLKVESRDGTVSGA

Cytochrome P450 3A4 = Cytochrome P450 3A4 (Homo sapiens, UniProt P08684); experiment: as §3; format: ADME
Cytochrome P450 3A4, sequence (P08684 whole entry): as above

Liver microsomes [4] = experiment: Half life in human liver microsomes at 1 uM measured 5 to 60 mins post dose by LC-MS/MS nethod; format: ADME, Microsome
CYP2C9 = CYP2C9 (Homo sapiens, UniProt P11712); experiment: (§4) Inhibition of CYP2C9; format: ADME
CYP2C9, sequence (P11712 whole entry): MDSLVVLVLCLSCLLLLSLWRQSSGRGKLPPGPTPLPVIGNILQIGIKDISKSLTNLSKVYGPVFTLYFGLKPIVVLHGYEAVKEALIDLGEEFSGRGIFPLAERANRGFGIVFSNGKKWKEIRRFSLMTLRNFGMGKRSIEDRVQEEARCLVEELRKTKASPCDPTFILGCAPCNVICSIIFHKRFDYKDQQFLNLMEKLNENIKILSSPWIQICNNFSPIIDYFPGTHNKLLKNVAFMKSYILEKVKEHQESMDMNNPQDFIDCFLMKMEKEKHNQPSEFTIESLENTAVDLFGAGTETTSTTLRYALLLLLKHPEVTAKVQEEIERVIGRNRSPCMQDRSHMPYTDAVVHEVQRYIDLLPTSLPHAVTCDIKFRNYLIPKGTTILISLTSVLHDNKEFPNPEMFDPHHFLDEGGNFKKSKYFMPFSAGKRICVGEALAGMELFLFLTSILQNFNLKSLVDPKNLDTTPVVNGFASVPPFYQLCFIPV

Cytochrome P450 2C9 = Cytochrome P450 2C9 (Homo sapiens, UniProt P11712); experiment: as §4; format: ADME
Cytochrome P450 2C9, sequence (P11712 whole entry): as above

[5] = Chemical stability in phosphate buffer assessed as compound degradation at pH 7 at 20 degC measured between 2 to 48 hrs during 48 hrs incubation period; format: physicochemical; conditions: pH 7, 48 h
[6] = Chemical stability in phosphate buffer assessed as compound degradation at pH 3 at 20 degC measured between 1 to 48 hrs during 48 hrs incubation period; conditions: pH 3, 48 h

## COC(=O)N[C@H](C(=O)N1CCC[C@H]1c1ncc(-c2ccc(-c3ccc(-c4cnc([C@@H]5CCCN5C(=O)[C@@H](NC(=O)OC)C(C)C)[nH]4)cc3)cc2)[nH]1)C(C)C
[1]
  EC90: 20 pM

## COC(=O)N[C@H](C(=O)N1CCC[C@H]1c1nc(-c2cccs2)c(-c2ccc(-c3ccc(-c4[nH]c([C@@H]5CCCN5C(=O)[C@@H](NC(=O)OC)C(C)C)nc4-c4cccs4)cc3)cc2)[nH]1)C(C)C
PBMC
  CC50: 44.6 µM
[1]
  EC90: 300 pM
Vero
  CC50: > 100 µM
CCRF-CEM
  CC50: > 100 µM
[2]
  CC50: > 1000 nM

## COC(=O)N[C@H](C(=O)N1C[C@H](n2cc(-c3ccccc3)nn2)C[C@H]1c1ncc(-c2ccc(-c3ccc(-c4cnc([C@@H]5C[C@@H](n6cc(-c7ccccc7)nn6)CN5C(=O)[C@@H](NC(=O)OC)C(C)C)[nH]4)cc3)cc2)[nH]1)C(C)C
PBMC
  CC50: > 100 µM
[1]
  EC90: 9200 pM
CCRF-CEM
  CC50: > 100 µM
[2]
  CC50: > 1000 nM

## COC(=O)N[C@H](C(=O)N1C[C@@H](n2cc(C(=O)OC)nn2)C[C@H]1c1ncc(-c2ccc(-c3ccc(-c4cnc([C@@H]5C[C@H](n6cc(C(=O)OC)nn6)CN5C(=O)[C@@H](NC(=O)OC)C(C)C)[nH]4)cc3)cc2)[nH]1)C(C)C
PBMC
  CC50: > 100 µM
[1]
  EC90: > 10000 pM
CCRF-CEM
  CC50: > 100 µM
[2]
  CC50: > 1000 nM

## COC(=O)N[C@H](C(=O)N1C[C@H](N=[N+]=[N-])C[C@H]1c1nc(Cl)c(-c2ccc(-c3ccc(-c4[nH]c([C@@H]5C[C@@H](N=[N+]=[N-])CN5C(=O)[C@@H](NC(=O)OC)C(C)C)nc4Cl)cc3)cc2)[nH]1)C(C)C
PBMC
  CC50: 7.8 µM
[1]
  EC90: 9.6 pM
Vero
  CC50: > 100 µM
CCRF-CEM
  CC50: 3.8 µM
[2]
  CC50: > 1000 nM

## COC(=O)N[C@H](C(=O)N1CCC[C@H]1c1nc(-c2ccco2)c(-c2ccc(-c3ccc(-c4[nH]c([C@@H]5CCCN5C(=O)[C@@H](NC(=O)OC)C(C)C)nc4-c4ccco4)cc3)cc2)[nH]1)C(C)C
PBMC
  CC50: 49.2 µM
[1]
  EC90: 97 pM
Vero
  CC50: > 100 µM
CCRF-CEM
  CC50: 2.9 µM
[2]
  CC50: > 1000 nM

## COC(=O)N[C@H](C(=O)N1C[C@@H](N=[N+]=[N-])C[C@H]1c1nc(Br)c(-c2ccc(-c3ccc(-c4[nH]c([C@@H]5C[C@H](N=[N+]=[N-])CN5C(=O)[C@@H](NC(=O)OC)C(C)C)nc4Br)cc3)cc2)[nH]1)C(C)C
PBMC
  CC50: 3.4 µM
[1]
  EC90: 55.3 pM
CCRF-CEM
  CC50: 4.5 µM
[2]
  CC50: > 1000 nM

## COC(=O)N[C@H](C(=O)N1C[C@@H](N=[N+]=[N-])C[C@H]1c1nc(Cl)c(-c2ccc(-c3ccc(-c4[nH]c([C@@H]5C[C@H](N=[N+]=[N-])CN5C(=O)[C@@H](NC(=O)OC)C(C)C)nc4Cl)cc3)cc2)[nH]1)C(C)C
PBMC
  CC50: 3.3 µM
[1]
  EC90: 74.6 pM
Vero
  CC50: 98.1 µM
CCRF-CEM
  CC50: 4 µM
[2]
  CC50: > 1000 nM

## COC(=O)N[C@H](C(=O)N1C[C@H](N=[N+]=[N-])C[C@H]1c1ncc(-c2ccc(-c3ccc(-c4[nH]c([C@@H]5C[C@@H](N=[N+]=[N-])CN5C(=O)[C@@H](NC(=O)OC)C(C)C)nc4Cl)cc3)cc2)[nH]1)C(C)C
PBMC
  CC50: 9.7 µM
[1]
  EC90: 29.5 pM
Vero
  CC50: > 100 µM
CCRF-CEM
  CC50: 31 µM
[2]
  CC50: > 1000 nM

## COC(=O)N[C@H](C(=O)N1CCC[C@H]1c1nc(Cl)c(-c2ccc(-c3ccc(-c4[nH]c([C@@H]5CCCN5C(=O)[C@@H](NC(=O)OC)C(C)C)nc4Cl)cc3)cc2)[nH]1)C(C)C
Liver microsomes [3]
  CLint: 5.8 µL/min/mg
CYP1A2
  IC90: > 100 µM
Cytochrome P450 1A2
  IC50: > 100 µM
CYP2D6
  IC90: > 100 µM
Cytochrome P450 2D6
  IC50: > 100 µM
CYP3A4
  IC90: > 100 µM
Cytochrome P450 3A4
  IC50: 13.8 µM
Liver microsomes [4]
  t1/2: 119.5 min
PBMC
  CC50: 2.8 µM
[1]
  EC90: 11.4 pM
CYP2C9
  IC90: > 100 µM
Cytochrome P450 2C9
  IC50: 81.6 µM
[5]
  Stability: Stable
Vero
  CC50: 100 µM
CCRF-CEM
  CC50: 12 µM
[2]
  CC50: > 1000 nM
[6]
  Stability: Stable
